According to ChEMBL document CHEMBL5120971, “Network Pharmacology Research and Dual-omic Analyses Reveal the Molecular Mechanism of Natural Product Nodosin Inhibiting Muscle-Invasive Bladder Cancer in Vitro and in Vivo” (J Nat Prod, 2022):
Calls of active or inactive are those of the source. No cut-off for these calls is given here.

Assays:
T-24 [1] = test: Cytotoxicity against human T24 cells assessed as reduction in cell growth at 4 uM by CCK8 assay; assay type: functional, cell-based; conditions: time 24-72 hrs, TDE = time-dependent effect
T-24 [2] = test: Effect on NEK6 expression in human T24 cells at 6 uM measured after 24 to 30 hrs by proteomic analysis; assay type: functional, cell-based; conditions: time 24-30 hrs
T-24 [3] = test: Induction of morphological changes in human T24 cells assessed as cell shrinkage at 4 to 12 uM measured after 48 hrs by microscopy; assay type: functional, cell-based; conditions: dose 4-12 µM
T-24 [4] = test: Antimigratory activity against human T24 cells assessed as reduction in F-actin expression at 8 to 20 uM measured after 24 hrs by actin-tracker red-594/DAPI staining based fluorescence assay; assay type: functional, cell-based; conditions: dose 8-20 µM
T-24 [5] = test: Induction of apoptosis in human T24 cells assessed as effect on FAM168A expression at 6 uM measured after 24 to 30 hrs by proteomic analysis; assay type: functional, cell-based; conditions: time 24-30 hrs
T-24 [6] = test: Induction of apoptosis in human T24 cells assessed as up regulation of SQSTM1 expression at 6 to 12 uM measured after 24 to 30 hrs by Western blot analysis; assay type: functional, cell-based; conditions: dose 6-12 µM, time 24-30 hrs
T-24 [7] = test: Induction of apoptosis in human T24 cells assessed as viable cells at 4 uM measured after 48 hrs by Annexin V-FITC/propidium iodide staining based flow cytometry (reference value: 97.49%); assay type: functional; conditions: read-out: Activity
T-24 [8] = test: Induction of apoptosis in human T24 cells assessed as up regulation of MAP1LC3B expression at 6 to 12 uM measured after 24 to 30 hrs by Western blot analysis; assay type: functional, cell-based; conditions: dose 6-12 µM, time 24-30 hrs
T-24 [9] = test: Induction of apoptosis in human T24 cells assessed as effect on RMDN3 expression at 6 uM measured after 24 to 30 hrs by proteomic analysis; assay type: functional, cell-based; conditions: time 24-30 hrs
T-24 [10] = test: Up regulation of FTL gene expression in human T24 cells at 6 uM measured after 12 to 18 hrs by transcriptome analysis; assay type: functional, cell-based; conditions: time 12-18 hrs
T-24 [11] = test: Induction of apoptosis in human T24 cells assessed as necrotic cells at 6 uM measured after 48 hrs by Annexin V-FITC/propidium iodide staining based flow cytometry (reference value: 0.57%); assay type: functional
T-24 [12] = test: Effect on E2F6 expression in human T24 cells at 6 uM measured after 24 to 30 hrs by proteomic analysis; assay type: functional, cell-based; conditions: time 24-30 hrs
T-24 [13] = test: Antimigratory activity against human T24 cells assessed as down regulation of ITGA3 expression at 6 uM measured after 24 to 30 hrs by proteomic analysis; assay type: functional, cell-based; conditions: time 24-30 hrs
T-24 [14] = test: Up regulation of HMOX1 expression in human T24 cells at 6 uM measured after 24 to 30 hrs by proteomic analysis; assay type: functional, cell-based; conditions: time 24-30 hrs
T-24 [15] = test: Induction of apoptosis in human T24 cells assessed as early apoptotic cells at 8 uM measured after 48 hrs by Annexin V-FITC/propidium iodide staining based flow cytometry (reference value: 1.2%); assay type: functional
T-24 [16] = test: Cytotoxicity against human T24 cells assessed as reduction in cell growth measured after 24 hrs by live/dead staining based fluorescence assay; assay type: functional; conditions: dose 4-10 µM, DDE = dose-dependent effect
T-24 [17] = test: Up regulation of SLC7A11 gene expression in human T24 cells at 6 uM measured after 12 to 18 hrs by transcriptome analysis; assay type: functional, cell-based; conditions: time 12-18 hrs
T-24 [18] = test: Antitumor activity against human T24 cells xenografted in BALB/c mouse assessed as reduction in mitotic count at 2 mg/kg, ip administered at 2 days interval by H and E staining based assay; assay type: functional, organism-based
T-24 [19] = test: Effect on HLTF expression in human T24 cells at 6 uM measured after 24 to 30 hrs by proteomic analysis; assay type: functional, cell-based; conditions: time 24-30 hrs
T-24 [20] = test: Induction of cell membrane disruption in human T24 cells at 4 to 8 uM measured after 48 hrs by transmission electron microscopy; assay type: cell-based; conditions: dose 4-8 µM
T-24 [21] = test: Induction of apoptosis in human T24 cells assessed as effect on ZFP36L1 expression at 6 uM measured after 24 to 30 hrs by proteomic analysis; assay type: functional, cell-based; conditions: time 24-30 hrs
T-24 [22] = test: Effect on RNF169 expression in human T24 cells at 6 uM measured after 24 to 30 hrs by proteomic analysis; assay type: functional, cell-based; conditions: time 24-30 hrs
T-24 [23] = test: Induction of autophagy in human T24 cells assessed as effect on WDR41 gene expression at 6 uM measured after 12 to 18 hrs by transcriptome analysis; assay type: functional, cell-based; conditions: time 12-18 hrs
T-24 [24] = test: Antimigratory activity against human T24 cells assessed as down regulation of CFL2 expression at 6 uM measured after 24 to 30 hrs by proteomic analysis; assay type: functional, cell-based; conditions: time 24-30 hrs
T-24 [25] = test: Effect on DDB1 expression in human T24 cells at 6 uM measured after 24 to 30 hrs by proteomic analysis; assay type: functional, cell-based; conditions: time 24-30 hrs
T-24 [26] = test: Induction of apoptosis in human T24 cells assessed as effect on SQSTM1 expression at 6 uM measured after 24 to 30 hrs by proteomic analysis; assay type: functional, cell-based; conditions: time 24-30 hrs
UMUC3 = test: Cytotoxicity against human UMUC3 cells assessed as reduction in cell growth by CCK8 assay; assay type: functional, cell-based
T-24 [27] = test: Induction of apoptosis in human T24 cells assessed as late apoptotic cells at 4 uM measured after 48 hrs by Annexin V-FITC/propidium iodide staining based flow cytometry (reference value: 0.74%); assay type: functional
T-24 [28] = test: Antimigratory activity against human T24 cells assessed as down regulation of PALLD expression at 6 uM measured after 24 to 30 hrs by proteomic analysis; assay type: functional, cell-based; conditions: time 24-30 hrs
T-24 [29] = test: Effect on PDCD2L expression in human T24 cells at 6 uM measured after 24 to 30 hrs by proteomic analysis; assay type: functional, cell-based; conditions: time 24-30 hrs
T-24 [30] = test: Antitumor activity against human T24 cells xenografted in BALB/c mouse assessed as reduction in tumor weight at 2 mg/kg, ip administered at 2 days interval; assay type: functional, organism-based
T-24 [31] = test: Induction of cell membrane disruption in human T24 cells at 4 to 20 uM measured after 24 hrs by Dio/Hoechst 33342 staining based fluorescence assay; conditions: dose 4-20 µM
T-24 [32] = test: Induction of apoptosis in human T24 cells assessed as necrotic cells at 4 uM measured after 48 hrs by Annexin V-FITC/propidium iodide staining based flow cytometry (reference value: 0.57%); assay type: functional
T-24 [33] = test: Effect on NBN expression in human T24 cells at 6 uM measured after 24 to 30 hrs by proteomic analysis; assay type: functional, cell-based; conditions: time 24-30 hrs
T-24 [34] = test: Induction of morphological changes in human T24 cells assessed as cytoplasmic condensation at 4 to 12 uM measured after 48 hrs by microscopy; assay type: functional, cell-based; conditions: dose 4-12 µM
T-24 [35] = test: Induction of apoptosis in human T24 cells assessed as up regulation of SQSTM1 expression at 6 to 12 uM measured after 24 hrs by immunofluorescence analysis; assay type: functional, cell-based; conditions: dose 6-12 µM
SW780 = test: Cytotoxicity against human SW780 cells assessed as reduction in cell growth by CCK8 assay; assay type: functional, cell-based
T-24 [36] = test: Effect on MSH2 expression in human T24 cells at 6 uM measured after 24 to 30 hrs by proteomic analysis; assay type: functional, cell-based; conditions: time 24-30 hrs
T-24 [37] = test: Induction of autophagy in human T24 cells assessed as effect on SQSTM1 gene expression at 6 uM measured after 12 to 18 hrs by transcriptome analysis; assay type: functional, cell-based; conditions: time 12-18 hrs
T-24 [38] = test: Effect on MDC1 expression in human T24 cells at 6 uM measured after 24 to 30 hrs by proteomic analysis; assay type: functional, cell-based; conditions: time 24-30 hrs

Compound: C=C1C(=O)[C@]23C[C@H]1C[C@@H](O)[C@H]2[C@@]12CO[C@@H](O)[C@@H]1C(C)(C)CC[C@@H]2OC3=O [NODOSIN]
- Activity (T-24 [1]): Tde
- Activity (T-24 [2]): Active
- Activity (T-24 [3]): Active
- Activity (T-24 [4]): Active
- Activity (T-24 [5]): Active
- Activity (T-24 [6]): Active
- viability at 4 µM (T-24 [7]): 96.1%
- Activity (T-24 [8]): Active
- Activity (T-24 [9]): Active
- Activity (T-24 [10]): Active
- Activity (T-24 [11]): 0.4%
- Activity (T-24 [12]): Active
- Activity (T-24 [13]): Active
- Activity (T-24 [14]): Active
- Activity (T-24 [15]): 10.54%
- Activity (T-24 [16]): Dde
- Activity (T-24 [17]): Active
- Activity (T-24 [18]): Active
- Activity (T-24 [19]): Active
- Activity (T-24 [20]): Active
- Activity (T-24 [21]): Active
- Activity (T-24 [22]): Active
- Activity (T-24 [23]): Active
- Activity (T-24 [24]): Active
- Activity (T-24 [25]): Active
- Activity (T-24 [26]): Active
- IC50 (UMUC3): 3.45 µM
- Activity (UMUC3; DDE = dose-dependent effect): Dde
- Activity (T-24 [27]): 1.34%
- Activity (T-24 [28]): Active
- Activity (T-24 [29]): Active
- Activity (T-24 [30]): Active
- Activity (T-24 [31]): Active
- Activity (T-24 [32]): 0.2%
- Activity (T-24 [33]): Active
- Activity (T-24 [34]): Active
- Activity (T-24 [35]): Active
- IC50 (SW780): 9.99 µM
- Activity (SW780; DDE = dose-dependent effect): Dde
- Activity (T-24 [36]): Active
- Activity (T-24 [37]): Active
- Activity (T-24 [38]): Active
